Here are results for one compound from paper PMC9747113 (Clinical and Translational Science, 2022).

Molecules are shown by their SMILES. Entries after “also recorded” stand apart in the source; their conditions may differ.

Data set [1] concerns BTK. Particulars: 2 h after the first dose; cited from earlier work.
Data set [2] is described as follows: Population PK model of evobrutinib plasma concentration-time data.
The nature of data set [3]: Tolerability in fed and fasted states. The settings on record: fed vs fasted. The data set is classed as in vivo.
Data set [4] relates to BTK. Particulars: cited from earlier work.
Where [5] appears, read: between-participant variability, variance estimate.
Where [6] appears, read: final population PK model, oral tablet.

For orientation: Vd/F means the volume of distribution divided by bioavailability. Turning to `C=CC(=O)N1CCC(CNc2ncnc(N)c2-c2ccc(Oc3ccccc3)cc2)CC1` [evobrutinib, Evobrutinib], the “BTKO in peripheral blood” value in the data set with BTK [1] is reported as “high degree of BTKO”. Further, in data set [2] (setting [5]), the “BPV ALAG, Estimate (RSE %)” value is 0.156 (40.2); the “BPV CL/F, Estimate (RSE %)” value was 0.0958 (23.0); the “BPV D 1 Fasted, Estimate (RSE %)” value is on record as 1.39 (47.2); the “BPV D 1 Fed, Estimate (RSE %)” value was 1.39 (47.2). In data set [2] (setting [5]), the “BPV Q/F, Estimate (RSE %)” value was 1.17 (24.1); the “BPV V2/F, Estimate (RSE %)” value was 0.627 (31.9); the “BPV V3/F, Estimate (RSE %)” value is on record as 1.86 (22.7). The “Effect of ethnicity (Japanese vs non-Japanese) on PK parameters” value in data set [2] (covariate test) was “no difference; also recorded: not a significant covariate”. In data set [2] (setting [6]), the “ALAG (absorption lag time)” value stood at 0.235 h, the “CL/F (apparent clearance)” value amounted to 273 L/h, the “K a (first-order absorption rate constant)” value stood at 0.784 h⁻¹ and the “V3/F (apparent peripheral volume of distribution)” value is 446 L. Besides, the Vd/F in data set [2] (human, in vivo, po) is 61.1 L. Also, the “Increase of bioavailability with food compared with fasted” value in data set [2] (low-fat meal vs fasted) amounted to 49%. Further, the “Tolerability in fed and fasted states” value in data set [3] is reported as “equivalent”. Also, in the data set with BTK [4] (after 14 days of 25 mg q.d. while fasted), the “BTKO, median at trough” value is recorded as 88%. For the same compound, the “BTK occupancy at 96 h postdose” value in the data set on BTK [4] (single doses ≥100 mg while fasted) is greater than 50%. For the same compound, the “maximum BTK occupancy” value with BTK [4] (within 4 h of single doses ≥200 mg while fasted) is reported as greater than 90%.
